Experimental data published in patent US20240341301A1 (The Regents of the University of Michigan, priority 2023, published 2024).

What was measured:
[1] = tested on: transplanted murine donor hearts; assay: Murine heterotopic syngeneic heart transplantation; format: in vivo, mouse
Procedure: (§1) Cardiac grafts procured from WT C57Bl/6J mice following arrest with cold (4° C.) HTK±VPA were transplanted into the right neck of sex-matched syngeneic C57BL/6J recipient mice following 16 hours of cold (4° C.) preservation in corresponding HTK±VPA solution as previously described (59). A cuff technique was used to connect the recipient right common carotid artery and right external jugular vein to the donor ascending aorta and pulmonary artery, respectively. Following reperfusion in the recipient, successful grafts were expected to resume a regular heartbeat. At 24 hours after reperfusion, the surgical incision was reopened and a small conductance catheter was introduced into the LV to measure contractility and relaxation.
Blood from recipient mice was centrifuged at 3000 g in 4° C. for 10 minutes. Serum was aliquoted and snap-frozen. Serum cTnT, cTnI, TNFα, IL-6, IP10 and MIG concentrations were measured using Sigma-Aldrich MILLIPLEX kits (Cat. No.: MCYTMAG, MCVD2MAG). Pig arterial perfusate was centrifuged at 3000 g in 4° C. for 10 minutes. The abundance of cTnI, IL-1β, IL-6 and TNF-α was detected using Sigma MILLIPLEX kit (Cat. No.: MCVD2MAG, PCYTMAG).

murine hearts = assay: Mass spectrometry metabolomics of preserved or transplanted murine hearts; parameters: species or system mouse
Procedure: (§2) Male and female WT or Irg1^−/− mice (Jackson laboratories, Bar Harbor, ME) were anesthetized intraperitoneally with 80 mg/kg ketamine and 5 mg/kg xylazine, anticoagulated with heparin (2,000 U/kg iv), and the heart was rapidly exposed through a sternal incision. The aorta was cannulated and retrograde perfused in-situ with HTK solution±HDAC inhibitors. After cannulation, the heart dissected free, the left atrium was opened. For 4-OI (Cayman Chemical, 25374) experiments, donor mice were treated 4-OI (dissolved in 40% β-Cyclodextrin, 50 mg/kg intraperitoneally) or vehicle control (40% β-Cyclodextrin intraperitoneally) 2 hours prior to donor heart procurement. After dissection, the heart was stored at 4° C. with HTK or HTK with VPA for a pre-designated duration. The hearts were then mounted on a Radnoti mouse Langendorff apparatus (ADInstruments inc., Colorado Springs, CO) in constant-pressure mode (˜70 mmHg) with a modified Krebs-Henseleit buffer (KHB; in mM: 118 NaCl, 4.7 KCl, 1.25 CaCl2), 1.66 MgSO4, 24.88 NaHCO3, 1.18 KH2PO4, 5.55 glucose, and 2.0 Na-pyruvate). A balloon was placed in the LV through the left atrium and left ventricular diastolic pressure was set to ˜8 mmHg at initiation. The heart was perfused with modified Krebs-Henseleit buffer for 30 min to stabilize and then hemodynamics measurements were recorded. Myocardial temperature was maintained at 37° C. LabChart software (ADInstruments inc., Colorado Springs, CO) was used to record ventricular function, perfusion pressures, cardiac chamber temperature and myocardial temperature. After perfusing the heart for 60 minutes, the heart was removed from the ex-vivo perfusion apparatus for specimen collection. Tissue was immediately placed in liquid N2 or treated with 4% formalin.
as §1
Metabolomics measurements were performed by the Michigan Regional Comprehensive Metabolomics Resource Core (Ann Arbor, MI, USA).

IRG1 [2] = assay: IRG1 enhancer ChIP-qPCR and mRNA expression in human donor heart tissue
Procedure: Pig hearts underwent ex-vivo perfusion after preservation for 4 or 10 hours. Approval for human heart procurement was obtained from the University of Michigan Institutional Review Board (HUM00131275). Human donor hearts from deceased brain death donors were procured as per standard clinical protocols from the Gift of Life Michigan (GOLM) organ procurement facility. Myocardial biopsies (˜5 mm^3) of LV were biopsied immediately after cardioplegic arrest (0 h) and after 8 hours (8 h) of cold storage in a cooler containing ice. […] Causes of death were stroke (n=4), trauma (n=2), drug overdose (n=1), and cardiac arrest (n=1). Heart tissue were either fixed in formalin or snap frozen in liquid N2 for later analysis.

Irg1 [3] = assay: Irg1 mRNA transcript expression in preserved murine donor hearts; parameters: species or system mouse; details: 16 hours preservation without reperfusion and during ex vivo perfusion
Procedure: as §2

murine donor hearts = assay: Murine donor heart tissue staining and Western blot (oxidative stress, antioxidant proteins, cell death); parameters: species or system mouse
Procedure: as §2

[4] = cited from earlier work
[5] = 16 h cold preservation, 24 h reperfusion in recipient
[6] = recipient serum after transplantation
[7] = cold static preservation as well as transplantation
[8] = following murine heart transplantation
[9] = mice hearts during cardiac preservation
[10] = 16 hours preservation, ex-vivo perfusion
[11] = ex vivo perfused WT murine hearts

SMILES: CCCC(CCC)C(=O)O [VPA, 2-Propyl-pentanoic acid]
- improvement of in vivo donor heart contractility (max dP/dt) compared to standard HTK solution alone [1, 5]: 265%
- improvement of in vivo donor heart relaxation (min dP/dt) compared to standard HTK solution alone [1, 5]: 250%
- cell death in transplanted heart tissue ([1]; TUNEL): reduced
- serum concentration of IL-6 [1, 6]: reduced
- serum concentration of IP-10 [1, 6]: reduced
- serum concentration of MIG [1, 6]: reduced
- serum concentration of TNFα [1, 6]: reduced
- serum troponin I [1, 6]: reduced
- serum troponin T [1, 6]: reduced
- leukocyte infiltration ([1]; transplanted heart tissue): reduced
- itaconate (murine hearts; [7]): increased
- succinate (murine hearts; [7]): decreased
- fumarate (murine hearts; [8]): increased
- glutamate (murine hearts; [8]): decreased
- malate (murine hearts; [8]): increased
- fumarate concentration in VPA-treated group (murine hearts; [9]): 29.0±7.5 pmol/mg tissue
- itaconate concentration in VPA-treated group (murine hearts; [9]): 8.8±0.8 pmol/mg tissue
- acetyl-CoA, citrate, α-ketoglutarate, fumarate, or malate abundance (murine hearts; murine hearts during cold preservation): no changes
- IRG1 enhancer activity (H3K27ac ChIP-qPCR) (IRG1 [2]; 8-hours of preservation compared to HTK alone): increased
- IRG1 mRNA transcript expression (IRG1 [2]; human hearts after preservation): increased
- Irg1 transcript expression (Irg1 [3]): increased
- overall oxidative stress (DHE staining) (murine donor hearts; [10]): decreased
- oxidative DNA damage (8OHdG staining) (murine donor hearts; [10]): decreased
- NRF2 nuclear translation effect (murine donor hearts; Irg1−/− hearts): greatly reduced
- benefit on TUNEL staining in α-actinin+ cardiomyocytes (murine donor hearts; Irg1−/− hearts): lost
- antioxidant protein expression (murine donor hearts; Irg1−/− murine hearts): no increase
- NRF2 nuclear translation from the cytoplasm (murine donor hearts; WT hearts): induced
- protein abundance of HO1 (murine donor hearts; [11]): upregulated
- protein abundance of SOD1 (murine donor hearts; [11]): upregulated
- protein abundance of SOD2 (murine donor hearts; [11]): not
- protein abundance of total NRF2 (murine donor hearts; [11]): upregulated
- ratio of reduced (GSH) versus oxidized glutathione (GSSG) (murine donor hearts; preserved and transplanted murine hearts): increased
- TUNEL staining in α-actinin+ cardiomyocytes (murine donor hearts; wild type hearts): reduced
- water solubility [4]: water soluble
